From patent US20200223837A1, “BENZOFURAN AMIDES AND HETEROAROMATIC ANALOGUES THEREOF FOR USE IN THERAPY” (European Molecular Biology Laboratory, priority 2017, published 2020) come the findings set out here.

Each structure is given as a SMILES string.

For this assay, the system named is EGR1 promoter. The experiment in a line: EGR1 reporter assay (luciferase) in genomically engineered HeLa cell line. The format is cell-based. The following applies: Homo sapiens; EGR1 reporter HeLa cells, luciferase activity after 24 hours with compound. From the text: The compounds of the present invention can be characterized for their effect on expression of egr1 (early growth response protein 1) using an EGR1 reporter cell line.
The HeLa cell line was genetically modified to provide a simple, robust and highly reproducible cell-based assay reporting the activity of an endogenous EGR1 promoter. In brief, a construct encoding EGFP and luciferase proteins, separated by a self-cleaving P2A peptide was inserted, using CRISPR, immediately downstream (3′) to the promoter of endogenous EGR1. Upon treatment with compounds, cells express EGFP and luciferase from EGR1 promoter, which can be readily detected either in live cells using microscopy or cytometry, or through detection of luciferase activity in cell lysates.
To achieve stable genomic integration of an EGR1-promoter dual reporter, two plasmids were generated: one contained the reporter construct (eGFP-P2A-luciferase) flanked by homology arms that direct insertion into genomic DNA, by homologous recombination, of a break in genomic DNA generated by guide RNA targeted cleavage by Cas9 endonuclease. The gRNA expressing plasmid was based on px330 (56), into which a gRNA sequence that targets a break in gDNA close to the start codon of EGR1 was cloned. The left homology arm (encoding part of EGR1 promoter adjacent to its start codon) and right homology arm (encoding […] of start codon of EGR1) were cloned from gDNA using the following primers: […]
The present compounds can be tested, e.g. by using a HeLa cell line carrying an EGR1 reporter construct which allows for expression of luciferase and eGFP (enhanced GFP) controlled by the EGR1 promoter. For this reporter cells are seeded in the wells of a 384 well microtiter plate at a density of 2000 cells per well in 48 μl of DMEM supplemented with 4.5 g/l glucose, 2 mM glutamine and 10% FCS and are incubated for 24 hours at 37° C. with 5% CO2 and 95% humidity. Then, an eleven point 1:3 serial dilution of each test compound, from an initial concentration of 100 μM, is prepared in DMSO and the dilutions are added to the cells in a volume of 2 μl per well. The cells are incubated for a further 24 hours, after which the luciferase activity of each well is determined by addition of 25 μl of luciferase substrate reaction mixture (Britelite™ plus, Perkin Elmer) and measuring the bioluminescence light output (EnVision Xcite plate reader, PerkinElmer).
The compound of example 64 served as a positive control for this EGR1 reporter assay. The compound of example 64 had been identified in an initial high throughput screening campaign.
For orientation: Reporter assays use an easily measured gene product as a stand-in for the process of interest.
`O=C(Cc1coc2cc3c(cc12)CCC3)Nc1ncc(C(F)(F)F)s1` [Example 63, 2-(6,7-Dihydro-5H-cyclopenta[f]benzofuran-3-yl)-N-[5-(trifluoromethyl)thiazol-2-yl]acetamide]: the EC50 fell in the range of 0.01 to 10 µM.
The value for `CCc1ccc2c(CC(=O)Nc3nc(-c4ccccn4)cs3)coc2c1` [Example 5, 2-(6-Ethylbenzofuran-3-yl)-N-[4-(2-pyridyl)thiazol-2-yl]acetamide] was 10 to 100 µM; that for `Cc1ccc2c(CC(=O)Nc3ncc(C#N)s3)coc2c1C` [Example 62, N-(5-Cyanothiazol-2-yl)-2-(6,7-dimethylbenzofuran-3-yl)acetamide] was 0.01 to 10 µM; that for `Cc1cc2occ(CC(=O)N(c3ccc(SC(F)F)cc3)c3nc4ccccc4s3)c2cc1C(C)C` [Example 81, N-(1,3-Benzothiazol-2-yl)-N-[4-(difluoromethylsulfanyl)phenyl]-2-(5-isopropyl-6-methyl-benzofuran-3-yl)acetamide] was 0.01 to 10 µM.
The value for `COC(=O)c1cnc(NC(=O)Cc2coc3c(C)c(C)ccc23)s1` [Example 47, Methyl 2-[[2-(6,7-dimethylbenzofuran-3-yl)acetyl]amino]thiazole-5-carboxylate] was 0.01 to 10 µM; that for `COc1ccc(-c2csc(NC(=O)Cc3coc4cc(C)ccc34)n2)cc1Cl` [Example 67, N-[4-(3-Chloro-4-methoxy-phenyl)thiazol-2-yl]-2-(6-methylbenzofuran-3-yl)acetamide] was 0.01 to 10 µM; that for `Cc1ccc2c(CC(=O)Nc3nccs3)coc2c1` [Example 42, 2-(6-Methylbenzofuran-3-yl)-N-thiazol-2-yl-acetamide] was 0.01 to 10 µM.
To `O=C(Cc1coc2c(Cl)c(Cl)ccc12)Nc1ncc(C(F)(F)F)[nH]1` [Example 49, 2-(6,7-Dichlorobenzofuran-3-yl)-N-[5-(trifluoromethyl)-1H-imidazol-2-yl]acetamide] belongs 0.01 to 10 µM; to `COc1ccc2c(CC(=O)N(c3ccc(SC(F)F)cc3)c3nc4ccccc4s3)coc2c1` [Example 77, N-(1,3-Benzothiazol-2-yl)-N-[4-(difluoromethylsulfanyl)phenyl]-2-(6-methoxybenzofuran-3-yl)acetamide], 0.01 to 10 µM.
Take `Cn1ccc(NC(=O)Cc2coc3cc4c(cc23)CCC4)n1` [Example 3, 2-(6,7-Dihydro-5H-cyclopenta[f]benzofuran-3-yl)-N-(1-methylpyrazol-3-yl)acetamide]: the EC50 was in the range of 10 to 100 µM.
The value for `O=C(Cc1coc2cc3c(cc12)CCC3)NCCNc1ncc(CO)s1` [Example 80, 2-(6,7-Dihydro-5H-cyclopenta[f]benzofuran-3-yl)-N-[2-[[5-(hydroxymethyl)thiazol-2-yl]amino]ethyl]acetamide] was 0.01 to 10 µM; that for `O=C(Cc1coc2c(Cl)cccc12)Nc1ncc(C(F)(F)F)s1` [Example 53, 2-(7-Chlorobenzofuran-3-yl)-N-[5-(trifluoromethyl)thiazol-2-yl]acetamide] was 0.01 to 10 µM.
In the case of `Cc1cnc(NC(=O)Cc2coc3cc(C)c(C)cc23)s1` [Example 45, 2-(5,6-Dimethylbenzofuran-3-yl)-N-(5-methylthiazol-2-yl)acetamide], the EC50 lay in the range of 0.01 to 10 µM.
The value for `Cc1ccc2c(CC(=O)Nc3ncc(C(F)(F)F)[nH]3)coc2c1Cl` [Example 58, 2-(7-Chloro-6-methyl-benzofuran-3-yl)-N-[5-(trifluoromethyl)-1H-imidazol-2-yl]acetamide] was 0.01 to 10 µM; that for `COc1ccc2c(CC(=O)Nc3nc(-c4ccc5c(c4)CCC(=O)N5)cs3)coc2c1` [Example 29, 2-(6-Methoxybenzofuran-3-yl)-N-[4-(2-oxo-3,4-dihydro-1H-quinolin-6-yl)thiazol-2-yl]acetamide] was 0.01 to 10 µM; that for `Cc1ccc2c(CC(=O)Nc3nc(C)cs3)coc2c1` [Example 33, 2-(6-Methylbenzofuran-3-yl)-N-(4-methylthiazol-2-yl)acetamide] was 0.01 to 10 µM.
To `Cc1ccc2c(CC(=O)Nc3ncc(C(F)(F)F)s3)coc2c1Cl` [Example 83, 2-(7-Chloro-6-methyl-benzofuran-3-yl)-N-[5-(trifluoromethyl)thiazol-2-yl]acetamide] belongs 0.01 to 10 µM.
Regarding `COc1ccc2c(CC(=O)Nc3nc(-c4ccncc4)cs3)coc2c1` [Example 25, 2-(6-Methoxybenzofuran-3-yl)-N-[4-(4-pyridyl)thiazol-2-yl]acetamide], the half-maximal effective concentration (EC50) was 0.01 to 10 µM.
The value for `COc1ccc2c(CC(=O)Nc3nc(-c4ccc(CCC(C)NC(C)=O)cc4)cs3)coc2c1` (stereo not drawn) [Example 51, N-[4-[4-(3-Acetamidobutyl)phenyl]thiazol-2-yl]-2-(6-methoxybenzofuran-3-yl)acetamide] was 0.01 to 10 µM.
As for `COc1ccc2c(CC(=O)Nc3nc4c(s3)CCC4)coc2c1` [Example 54, N-(5,6-Dihydro-4H-cyclopenta[d]thiazol-2-yl)-2-(6-methoxybenzofuran-3-yl)acetamide], the 50% effective concentration (EC50) fell in the range of 0.01 to 10 µM.
To `COc1ccc2nc(NC(=O)Cc3coc4cc(C)ccc34)sc2c1` [Example 41, N-(6-Methoxy-1,3-benzothiazol-2-yl)-2-(6-methylbenzofuran-3-yl)acetamide] belongs 0.01 to 10 µM.
`Cc1ccc2c(CC(=O)Nc3ncc(C(C)C)s3)coc2c1C` [Example 95, 2-(6,7-Dimethylbenzofuran-3-yl)-N-(5-isopropylthiazol-2-yl)acetamide]: the 50% effective concentration (EC50) was in the range of 0.01 to 10 µM.
In the case of `Cc1ccc2c(CC(=O)Nc3ncc(C#N)s3)coc2c1Cl` [Example 59, 2-(7-Chloro-6-methyl-benzofuran-3-yl)-N-(5-cyano-1H-thiazol-2-yl)acetamide], the EC50 is 0.01 to 10 µM.
To `COc1ccc2c(CC(=O)Nc3nc(C)cs3)coc2c1` [Example 12, 2-(6-Methoxybenzofuran-3-yl)-N-(4-methylthiazol-2-yl)acetamide] belongs 10 to 100 µM; to `Cc1ccc2c(CC(=O)N(c3ccc(SC(F)F)cc3)c3nc4ccccc4s3)coc2c1C` [Example 82, N-(1,3-Benzothiazol-2-yl)-N-[4-(difluoromethylsulfanyl)phenyl]-2-(6,7-dimethylbenzofuran-3-yl)acetamide], 0.01 to 10 µM.
Take `CCc1cnc(NC(=O)Cc2coc3cc4c(cc23)CCC4)s1` [Example 84, 2-(6,7-Dihydro-5H-cyclopenta[f]benzofuran-3-yl)-N-(5-ethylthiazol-2-yl)acetamide]: the EC50 fell in the range of 0.01 to 10 µM.
To `COc1ccc2c(CC(=O)Nc3nc(-c4ccc5c(c4)CCO5)cs3)coc2c1` [Example 74, N-[4-(2,3-Dihydrobenzofuran-5-yl)thiazol-2-yl]-2-(6-methoxybenzofuran-3-yl)acetamide] belongs 0.01 to 10 µM; to `COCc1cnc(NC(=O)Cc2coc3c(C)c(C)ccc23)s1` [Example 87, 2-(6,7-Dimethylbenzofuran-3-yl)-N-[5-(methoxymethyl)thiazol-2-yl]acetamide], 0.01 to 10 µM.
To `CCc1ccc2c(CC(=O)N(c3ccc(C(C)=O)cc3)c3nc4ccccc4s3)coc2c1` [Example 69, N-(4-Acetylphenyl)-N-(1,3-benzothiazol-2-yl)-2-(6-ethylbenzofuran-3-yl)acetamide] belongs 0.01 to 10 µM; to `COc1ccc2c(CC(=O)Nc3nc(-c4ccc(CNC(C)=O)o4)cs3)coc2c1` [Example 8, N-[4-[5-(Acetamidomethyl)-2-furyl]thiazol-2-yl]-2-(6-methoxybenzofuran-3-yl)acetamide], 10 to 100 µM.

As a reminder, the EC50 is the concentration at which the effect is half-maximal.
